Results from patent publication US20240148821A1, “PHARMACEUTICAL USE OF CYCLIC PEPTIDE COMPOUND” (CHUGAI SEIYAKU KABUSHIKI KAISHA, priority 2021, published 2024).
Numbered stars: 1 amine (or outer) side, 2 acyl side, 3 side chain; on linkers, the order of the positions; unused ones are H or OH. Bridge positions count the residues as written; N and C are the ends. Square brackets hold non-standard residues; d marks the D form. Peptide text beside a SMILES is read from it. * marks the point of attachment. hPhe(3-Cl-4-CF3) = N[C@@H](CCc1ccc(C(F)(F)F)c(Cl)c1)C(=O)O; hPhe(3-F,4-CF3) = N[C@@H](CCc1ccc(C(F)(F)F)c(F)c1)C(=O)O; NMePhe(4-Cl) = CN[C@@H](Cc1ccc(Cl)cc1)C(=O)O; NMePhe(3-Me) = CN[C@@H](Cc1cccc(C)c1)C(=O)O; NMePhe(4-Me) = CN[C@@H](Cc1ccc(C)cc1)C(=O)O; NMedβ3hAla = C[C@H](CC(=O)[*:2])N(C)[*:1]; NMeGly(cPent) = CN[C@H](C(=O)O)C1CCCC1; Phe(3-I) = N[C@@H](Cc1cccc(I)c1)C(=O)O; X26 = CC(C)=CC[C@H](N[*:1])C(=O)[*:2]; NMe4Pal = CN[C@@H](Cc1ccncc1)C(=O)O; NMeCha = CN[C@@H](CC1CCCCC1)C(=O)O; NMeChg = CN[C@H](C(=O)O)C1CCCCC1; NMeI = CC[C@H](C)[C@H](NC)C(=O)O; hPhe = N[C@@H](CCc1ccccc1)C(=O)O; NMeD = CN[C@@H](CC(=O)O)C(=O)O; NMeL = CN[C@@H](CC(C)C)C(=O)O; NMehSer = CN[C@@H](CCO)C(=O)O; NMeV = CN[C@H](C(=O)O)C(C)C; d(β3hA) = C[C@@H](N)CC(=O)O; Morpholide = C1CN(*)CCO1; NMeA = CN[C@@H](C)C(=O)O; NMeAib = CNC(C)(C)C(=O)O; Piperidide = C1CCN(*)CC1; dNMeA = CN[C@H](C)C(=O)O; Ac5c = NC1(C(=O)O)CCCC1; Aze = O=C(O)[C@@H]1CCN1; Ac4c = NC1(C(=O)O)CCC1; Sar = CNCC(=O)O

The molecules below were run on Human pancreatic cancer cell line AsPC-1 (G12D mutation Kras) (assay: AsPC-1 cell growth inhibition (AsPC-1 CGI)). Settings: read-out: AsPC-1 cell growth inhibition, 50% growth inhibitory concentration (IC50 value); 96 hours, CellTiter-Glo, values classified in ranges.
Assay type: cell-based
Procedure: Test compounds were serially dilated with dimethyl sulfoxide, and 200 nL was then dispensed to a U-bottom 96-well plate using Labcyte Echo. […] The cell suspension was dispensed to a. plate containing a test compound at 100 μL per well and incubated at 37° C. in a 5% carbon dioxide gas incubator. 96 hours later, 80 μL of CellTiter-Glo (Promega) was added to each well and fluorescence was measured.

Row | Structure (SMILES) | IC50 [nM]
1 | CC[C@H](C)[C@@H]1NC(=O)[C@H](CC(C)C)N(C)C(=O)C[C@@H](C(=O)N2CCCCC2)N(C)C(=O)[C@H](CC(C)C)N(C)C(=O)C2(CCCC2)NC(=O)[C@@H]2CCCN2C(=O)[C@H](CCc2ccc(C(F)(F)F)c(F)c2)NC(=O)CN(C)C(=O)[C@H](Cc2ccc(Cl)cc2)N(C)C(=O)CN(C)C(=O)CN(C)C1=O [Compound 1061] ([NMeL]I[Sar][Sar][NMePhe(4-Cl)][Sar][hPhe(3-F,4-CF3)]P[Ac5c][NMeL][NMeD]-Piperidide; lactam N-11) | > 500
2 | CC[C@H](C)[C@@H]1NC(=O)[C@H](CC(C)C)N(C)C(=O)C[C@@H](C(=O)N2CCCCC2)N(C)C(=O)[C@H](CC(C)C)NC(=O)C(C)(C)N(C)C(=O)[C@H](CC=C(C)C)NC(=O)[C@H](Cc2cccc(I)c2)NC(=O)CN(C)C(=O)[C@H](Cc2ccc(Cl)cc2)N(C)C(=O)[C@@H]2CCN2C(=O)[C@H](C)N(C)C1=O [Compound 1419] ([NMeL]I[NMeA][Aze][NMePhe(4-Cl)][Sar][Phe(3-I)][X26][NMeAib]L[NMeD]-Piperidide; lactam N-11) | > 500
3 | CC[C@H](C)[C@@H]1NC(=O)[C@H](CC(C)C)N(C)C(=O)C[C@@H](C(=O)N2CCCCC2)N(C)C(=O)[C@H](CCOC)N(C)C(=O)C2(CCCC2)NC(=O)[C@@H]2CCCN2C(=O)[C@H](CCc2ccc(C(F)(F)F)c(Cl)c2)NC(=O)CN(C)C(=O)[C@H](CC2CCCCC2)N(C)C(=O)[C@@H]2CCN2C(=O)[C@H](C)N(C)C1=O [Compound 141] ([NMeL]I[NMeA][Aze][NMeCha][Sar][hPhe(3-Cl-4-CF3)]P[Ac5c][NMehSer](Me)[NMeD]-Piperidide; lactam N-11) | > 500
4 | CC[C@H](C)[C@@H]1NC(=O)[C@H](CC(C)C)N(C)C(=O)C[C@@H](C(=O)N2CCOCC2)N(C)C(=O)[C@H](C2CCCCC2)N(C)C(=O)C2(CCC2)NC(=O)[C@@H]2CCCN2C(=O)[C@H](CCc2ccc(C(F)(F)F)c(Cl)c2)NC(=O)CN(C)C(=O)[C@H](CC2CCCCC2)N(C)C(=O)CN(C)C(=O)CN(C)C1=O [Compound 1875] ([NMeL]I[Sar][Sar][NMeCha][Sar][hPhe(3-Cl-4-CF3)]P[Ac4c][NMeChg][NMeD]-Morpholide; lactam N-11) | ≤ 20
5 | CC[C@H](C)[C@@H]1NC(=O)[C@H](C)N(C)C(=O)C[C@@H](C)NC(=O)[C@H](C2CCCC2)N(C)C(=O)C2(CCCC2)NC(=O)[C@@H]2CCCN2C(=O)[C@H](CCc2ccc(C(F)(F)F)c(Cl)c2)NC(=O)[C@@H](C)N(C)C(=O)[C@H](Cc2cccc(C)c2)N(C)C(=O)[C@@H]2CCN2C(=O)[C@H](C)N(C)C1=O [Compound 117] (cyclo([Ac5c][NMeGly(cPent)][d(β3hA)][NMeA]I[NMeA][Aze][NMePhe(3-Me)][dNMeA][hPhe(3-Cl-4-CF3)]P)) | > 500
6 | CC[C@H](C)[C@@H]1NC(=O)[C@H](C)N(C)C(=O)C[C@@H](C)NC(=O)[C@H](C(C)C)N(C)C(=O)C2(CCCC2)NC(=O)[C@@H]2CCCN2C(=O)[C@H](CCc2ccc(C(F)(F)F)c(Cl)c2)NC(=O)CN(C)C(=O)[C@H](CC2CCCCC2)N(C)C(=O)[C@@H]2CCN2C(=O)[C@H](C)N(C)C1=O [Compound 1578] (cyclo([Ac5c][NMeV][d(β3hA)][NMeA]I[NMeA][Aze][NMeCha][Sar][hPhe(3-Cl-4-CF3)]P)) | > 500
7 | CC[C@H](C)[C@@H]1NC(=O)[C@H](CC(C)C)N(C)C(=O)C[C@@H](C(=O)N2CCCCC2)N(C)C(=O)[C@H](CC(C)C)NC(=O)C(C)(C)N(C)C(=O)[C@H](CCc2ccccc2)NC(=O)[C@H](Cc2cccc(I)c2)NC(=O)CN(C)C(=O)[C@H](Cc2ccc(C)cc2)N(C)C(=O)CN(C)C(=O)CN(C)C1=O [Compound 13] ([NMeL]I[Sar][Sar][NMePhe(4-Me)][Sar][Phe(3-I)][hPhe][NMeAib]L[NMeD]-Piperidide; lactam N-11) | > 500
8 | CC[C@H](C)[C@@H]1NC(=O)[C@H](CC(C)C)N(C)C(=O)C[C@@H](C(=O)N(C)C)N(C)C(=O)[C@H]([C@@H](C)CC)N(C)C(=O)C2(CCCC2)NC(=O)[C@H](Cc2ccncc2)N(C)C(=O)[C@H](CCc2ccc(C(F)(F)F)c(Cl)c2)NC(=O)CN(C)C(=O)[C@H](Cc2ccc(C)cc2)N(C)C(=O)[C@@H]2CCN2C(=O)[C@H](C)N(C)C1=O [Compound 1962] ([NMeL]I[NMeA][Aze][NMePhe(4-Me)][Sar][hPhe(3-Cl-4-CF3)][NMe4Pal][Ac5c][NMeI][NMeD]-NMe2; lactam N-11) | ≤ 20
9 | CC[C@H](C)[C@@H]1NC(=O)[C@H](CC(C)C)N(C)C(=O)C[C@@H](C)N(C)C(=O)[C@H]([C@@H](C)CC)N(C)C(=O)C2(CCCC2)NC(=O)[C@@H]2CCCN2C(=O)[C@H](CCc2ccc(C(F)(F)F)c(Cl)c2)NC(=O)CN(C)C(=O)[C@H](Cc2ccc(C)cc2)N(C)C(=O)CN(C)C(=O)CN(C)C1=O [Compound 1792] (cyclo([Ac5c][NMeI][NMedβ3hAla][NMeL]I[Sar][Sar][NMePhe(4-Me)][Sar][hPhe(3-Cl-4-CF3)]P)) | ≤ 20
